How the values were obtained:
Assay type in all cases: binding
[1] = biological target: T1, kinases (KINOMEscan panel) (Homo sapiens, UniProt Q7L7X3); conditions: kinase TAOK1; NEW KINOMEscan
T1 sequence (Q7L7X3 1-1001): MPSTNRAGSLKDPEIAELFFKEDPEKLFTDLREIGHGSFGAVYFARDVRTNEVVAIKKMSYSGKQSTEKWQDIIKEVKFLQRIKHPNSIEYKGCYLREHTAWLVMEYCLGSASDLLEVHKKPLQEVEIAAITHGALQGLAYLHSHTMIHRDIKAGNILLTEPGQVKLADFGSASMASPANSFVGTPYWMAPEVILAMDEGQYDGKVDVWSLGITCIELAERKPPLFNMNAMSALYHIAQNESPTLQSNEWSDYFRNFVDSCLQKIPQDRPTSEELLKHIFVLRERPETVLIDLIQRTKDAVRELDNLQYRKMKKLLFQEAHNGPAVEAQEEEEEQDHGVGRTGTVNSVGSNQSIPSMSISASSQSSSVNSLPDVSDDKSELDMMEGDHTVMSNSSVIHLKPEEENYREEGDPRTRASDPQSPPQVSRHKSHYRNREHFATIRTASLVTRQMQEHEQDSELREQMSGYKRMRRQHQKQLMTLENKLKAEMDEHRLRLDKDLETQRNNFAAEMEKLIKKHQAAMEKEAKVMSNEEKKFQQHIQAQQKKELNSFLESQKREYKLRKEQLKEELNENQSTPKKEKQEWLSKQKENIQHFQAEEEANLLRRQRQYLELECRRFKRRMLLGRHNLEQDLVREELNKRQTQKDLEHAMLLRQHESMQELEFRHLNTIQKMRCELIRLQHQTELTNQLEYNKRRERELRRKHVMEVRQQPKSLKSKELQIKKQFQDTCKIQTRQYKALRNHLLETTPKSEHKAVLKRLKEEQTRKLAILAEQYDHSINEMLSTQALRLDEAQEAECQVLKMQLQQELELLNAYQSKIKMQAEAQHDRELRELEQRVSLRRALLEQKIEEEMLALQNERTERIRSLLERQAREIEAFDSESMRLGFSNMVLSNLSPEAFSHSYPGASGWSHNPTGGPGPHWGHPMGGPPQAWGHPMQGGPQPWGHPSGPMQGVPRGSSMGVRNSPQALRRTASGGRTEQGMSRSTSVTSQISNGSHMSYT

[2] = biological target: kinases (KINOMEscan panel) (Homo sapiens, UniProt P08581, M1250T); conditions: kinase MET(M1250T); NEW KINOMEscan
kinases (KINOMEscan panel) (Homo sapiens, UniProt P08581, M1250T), sequence (P08581 25-1390 M1250T): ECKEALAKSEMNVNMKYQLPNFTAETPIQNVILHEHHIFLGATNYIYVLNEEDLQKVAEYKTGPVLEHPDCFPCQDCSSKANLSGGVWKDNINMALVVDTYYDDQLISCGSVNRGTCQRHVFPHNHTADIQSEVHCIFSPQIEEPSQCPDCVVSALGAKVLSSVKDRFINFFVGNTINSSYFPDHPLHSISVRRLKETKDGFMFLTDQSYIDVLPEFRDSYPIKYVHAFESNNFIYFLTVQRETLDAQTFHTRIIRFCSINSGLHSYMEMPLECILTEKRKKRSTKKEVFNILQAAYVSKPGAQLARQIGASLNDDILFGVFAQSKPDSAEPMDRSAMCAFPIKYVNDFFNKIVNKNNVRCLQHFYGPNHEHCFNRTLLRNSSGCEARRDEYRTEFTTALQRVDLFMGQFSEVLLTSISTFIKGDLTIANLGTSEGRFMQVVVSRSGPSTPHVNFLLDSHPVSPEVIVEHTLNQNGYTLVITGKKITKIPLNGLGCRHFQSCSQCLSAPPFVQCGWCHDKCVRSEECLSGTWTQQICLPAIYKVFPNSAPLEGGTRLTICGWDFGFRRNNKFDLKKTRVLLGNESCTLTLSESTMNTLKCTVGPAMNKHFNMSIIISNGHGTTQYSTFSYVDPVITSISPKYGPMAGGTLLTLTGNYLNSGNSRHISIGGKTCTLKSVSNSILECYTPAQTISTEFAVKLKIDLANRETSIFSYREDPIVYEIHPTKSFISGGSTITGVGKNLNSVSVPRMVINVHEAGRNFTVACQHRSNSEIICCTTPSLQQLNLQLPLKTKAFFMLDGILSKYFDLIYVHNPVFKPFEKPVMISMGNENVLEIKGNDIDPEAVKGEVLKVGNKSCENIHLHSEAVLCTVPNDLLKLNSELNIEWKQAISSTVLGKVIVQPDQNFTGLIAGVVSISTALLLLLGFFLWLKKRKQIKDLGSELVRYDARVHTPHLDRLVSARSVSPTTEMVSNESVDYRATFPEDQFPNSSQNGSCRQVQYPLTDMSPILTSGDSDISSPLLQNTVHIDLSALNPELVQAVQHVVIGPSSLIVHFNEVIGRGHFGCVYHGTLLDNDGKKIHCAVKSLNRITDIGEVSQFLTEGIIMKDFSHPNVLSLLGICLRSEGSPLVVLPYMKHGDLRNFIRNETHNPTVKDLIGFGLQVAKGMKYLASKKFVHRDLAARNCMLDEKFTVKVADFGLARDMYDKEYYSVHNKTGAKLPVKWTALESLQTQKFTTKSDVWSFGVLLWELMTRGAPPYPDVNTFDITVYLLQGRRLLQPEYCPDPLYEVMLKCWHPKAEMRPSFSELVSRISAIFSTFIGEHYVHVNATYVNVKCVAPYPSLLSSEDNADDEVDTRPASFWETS

[3] = biological target: kinases (KINOMEscan panel) (Homo sapiens, UniProt Q9UBF8); conditions: kinase PI4KB; NEW KINOMEscan
kinases (KINOMEscan panel) (Homo sapiens, UniProt Q9UBF8), sequence (Q9UBF8 whole entry): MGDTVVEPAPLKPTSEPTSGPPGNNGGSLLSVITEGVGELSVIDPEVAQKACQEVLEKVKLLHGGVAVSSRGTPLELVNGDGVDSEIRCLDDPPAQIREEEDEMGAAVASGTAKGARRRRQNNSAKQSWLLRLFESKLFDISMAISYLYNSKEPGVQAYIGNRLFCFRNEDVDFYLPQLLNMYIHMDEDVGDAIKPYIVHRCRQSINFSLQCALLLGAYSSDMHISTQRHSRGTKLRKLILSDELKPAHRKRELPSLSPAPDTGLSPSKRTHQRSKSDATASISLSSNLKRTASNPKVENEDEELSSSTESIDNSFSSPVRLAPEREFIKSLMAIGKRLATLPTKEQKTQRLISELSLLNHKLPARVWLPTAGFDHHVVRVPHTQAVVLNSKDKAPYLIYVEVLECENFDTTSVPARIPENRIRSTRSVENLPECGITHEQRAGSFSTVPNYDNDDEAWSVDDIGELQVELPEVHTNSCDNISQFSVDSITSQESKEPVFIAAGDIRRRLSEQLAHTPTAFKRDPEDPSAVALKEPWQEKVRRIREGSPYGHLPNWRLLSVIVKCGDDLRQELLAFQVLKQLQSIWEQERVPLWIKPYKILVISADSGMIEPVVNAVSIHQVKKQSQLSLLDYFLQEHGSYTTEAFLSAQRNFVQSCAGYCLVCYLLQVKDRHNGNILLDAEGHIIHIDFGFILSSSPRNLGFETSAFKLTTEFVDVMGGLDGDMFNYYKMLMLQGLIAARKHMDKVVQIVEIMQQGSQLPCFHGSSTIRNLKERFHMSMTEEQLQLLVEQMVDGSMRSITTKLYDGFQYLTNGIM

[4] = biological target: kinases (KINOMEscan panel) (Homo sapiens, UniProt P53350); conditions: PLK1; NEW KINOMEscan
kinases (KINOMEscan panel) (Homo sapiens, UniProt P53350), sequence (P53350 whole entry): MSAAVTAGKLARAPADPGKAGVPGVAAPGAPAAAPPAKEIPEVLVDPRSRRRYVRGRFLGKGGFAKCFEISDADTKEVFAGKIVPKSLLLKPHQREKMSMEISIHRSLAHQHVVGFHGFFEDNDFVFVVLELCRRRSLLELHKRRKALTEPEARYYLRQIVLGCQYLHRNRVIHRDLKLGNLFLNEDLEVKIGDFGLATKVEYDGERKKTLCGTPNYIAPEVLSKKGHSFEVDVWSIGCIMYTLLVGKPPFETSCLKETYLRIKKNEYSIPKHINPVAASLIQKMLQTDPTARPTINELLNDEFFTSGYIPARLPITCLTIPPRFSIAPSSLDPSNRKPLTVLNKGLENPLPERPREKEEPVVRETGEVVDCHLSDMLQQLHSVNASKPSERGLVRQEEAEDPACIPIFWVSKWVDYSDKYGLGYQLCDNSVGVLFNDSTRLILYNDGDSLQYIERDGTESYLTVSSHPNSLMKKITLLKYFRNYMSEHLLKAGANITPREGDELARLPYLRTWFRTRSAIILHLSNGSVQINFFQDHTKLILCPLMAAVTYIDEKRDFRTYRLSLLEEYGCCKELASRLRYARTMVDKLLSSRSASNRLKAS

[5] = biological target: T2, kinases (KINOMEscan panel) (Homo sapiens, UniProt P29322); conditions: kinase EPHA8; NEW KINOMEscan
T2 sequence (P29322 28-1005): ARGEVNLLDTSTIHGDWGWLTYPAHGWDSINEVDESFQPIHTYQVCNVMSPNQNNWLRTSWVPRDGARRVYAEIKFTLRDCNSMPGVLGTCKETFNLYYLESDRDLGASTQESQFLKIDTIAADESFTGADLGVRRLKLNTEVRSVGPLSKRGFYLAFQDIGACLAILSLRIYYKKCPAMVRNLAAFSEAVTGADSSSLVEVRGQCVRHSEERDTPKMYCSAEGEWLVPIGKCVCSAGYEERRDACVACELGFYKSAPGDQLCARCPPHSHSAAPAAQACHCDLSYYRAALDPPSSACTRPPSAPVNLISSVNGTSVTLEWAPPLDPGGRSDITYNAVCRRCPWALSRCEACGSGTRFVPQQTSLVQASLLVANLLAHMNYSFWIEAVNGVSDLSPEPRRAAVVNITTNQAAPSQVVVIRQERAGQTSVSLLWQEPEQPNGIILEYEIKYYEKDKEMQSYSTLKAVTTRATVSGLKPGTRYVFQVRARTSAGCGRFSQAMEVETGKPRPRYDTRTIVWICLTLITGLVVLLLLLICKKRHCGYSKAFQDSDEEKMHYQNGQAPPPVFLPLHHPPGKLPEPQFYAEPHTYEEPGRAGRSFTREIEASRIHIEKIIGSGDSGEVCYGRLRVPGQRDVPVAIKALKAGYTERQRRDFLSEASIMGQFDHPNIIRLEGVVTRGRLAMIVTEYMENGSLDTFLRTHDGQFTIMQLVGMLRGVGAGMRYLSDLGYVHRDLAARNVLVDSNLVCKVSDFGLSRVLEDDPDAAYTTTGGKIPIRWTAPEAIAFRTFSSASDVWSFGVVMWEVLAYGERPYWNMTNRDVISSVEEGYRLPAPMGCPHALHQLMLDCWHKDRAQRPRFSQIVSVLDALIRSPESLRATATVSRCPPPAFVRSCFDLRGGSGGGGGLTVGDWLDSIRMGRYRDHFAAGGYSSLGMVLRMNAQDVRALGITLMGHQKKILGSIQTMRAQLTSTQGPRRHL

[6] = biological target: kinases (KINOMEscan panel) (Homo sapiens, UniProt P06213); conditions: kinase INSR; NEW KINOMEscan
kinases (KINOMEscan panel) (Homo sapiens, UniProt P06213), sequence (P06213 28-1382): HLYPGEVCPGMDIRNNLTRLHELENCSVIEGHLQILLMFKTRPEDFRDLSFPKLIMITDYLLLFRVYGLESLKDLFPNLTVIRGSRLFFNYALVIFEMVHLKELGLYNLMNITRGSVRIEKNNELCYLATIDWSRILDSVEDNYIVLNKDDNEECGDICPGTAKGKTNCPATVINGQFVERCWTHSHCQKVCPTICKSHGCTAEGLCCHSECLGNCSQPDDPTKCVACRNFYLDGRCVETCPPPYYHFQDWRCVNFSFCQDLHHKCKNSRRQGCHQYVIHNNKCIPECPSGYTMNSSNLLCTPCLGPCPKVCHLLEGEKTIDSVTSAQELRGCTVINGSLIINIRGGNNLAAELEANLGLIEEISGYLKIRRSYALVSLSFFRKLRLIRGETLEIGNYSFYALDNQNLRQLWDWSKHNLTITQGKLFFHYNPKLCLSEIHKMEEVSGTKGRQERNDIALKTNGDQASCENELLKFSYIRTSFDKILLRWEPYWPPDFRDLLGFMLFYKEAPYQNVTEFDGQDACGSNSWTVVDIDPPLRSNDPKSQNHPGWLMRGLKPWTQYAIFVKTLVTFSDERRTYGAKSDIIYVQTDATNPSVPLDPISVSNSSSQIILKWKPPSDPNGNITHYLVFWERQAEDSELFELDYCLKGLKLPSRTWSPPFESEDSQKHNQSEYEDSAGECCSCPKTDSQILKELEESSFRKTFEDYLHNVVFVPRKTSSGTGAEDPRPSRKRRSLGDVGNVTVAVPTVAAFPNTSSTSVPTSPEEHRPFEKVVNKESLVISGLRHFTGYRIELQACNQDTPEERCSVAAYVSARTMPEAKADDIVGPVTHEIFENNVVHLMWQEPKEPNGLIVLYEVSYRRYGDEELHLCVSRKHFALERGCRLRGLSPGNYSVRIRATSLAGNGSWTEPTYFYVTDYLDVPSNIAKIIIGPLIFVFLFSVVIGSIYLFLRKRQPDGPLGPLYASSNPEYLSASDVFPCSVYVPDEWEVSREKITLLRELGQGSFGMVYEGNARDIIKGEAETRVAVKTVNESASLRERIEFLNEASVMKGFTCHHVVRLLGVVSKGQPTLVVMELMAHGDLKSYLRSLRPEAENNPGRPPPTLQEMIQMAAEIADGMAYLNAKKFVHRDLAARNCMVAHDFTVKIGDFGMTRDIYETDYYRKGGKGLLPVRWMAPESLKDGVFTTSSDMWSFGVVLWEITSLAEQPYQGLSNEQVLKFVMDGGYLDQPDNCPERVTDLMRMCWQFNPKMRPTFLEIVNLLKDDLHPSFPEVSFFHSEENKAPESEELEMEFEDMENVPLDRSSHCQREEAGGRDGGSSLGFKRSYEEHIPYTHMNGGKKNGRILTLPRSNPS

[7] = biological target: T3, kinases (KINOMEscan panel) (Homo sapiens, UniProt P25098); conditions: NEW KINOMEscan
T3 sequence (P25098 1-689): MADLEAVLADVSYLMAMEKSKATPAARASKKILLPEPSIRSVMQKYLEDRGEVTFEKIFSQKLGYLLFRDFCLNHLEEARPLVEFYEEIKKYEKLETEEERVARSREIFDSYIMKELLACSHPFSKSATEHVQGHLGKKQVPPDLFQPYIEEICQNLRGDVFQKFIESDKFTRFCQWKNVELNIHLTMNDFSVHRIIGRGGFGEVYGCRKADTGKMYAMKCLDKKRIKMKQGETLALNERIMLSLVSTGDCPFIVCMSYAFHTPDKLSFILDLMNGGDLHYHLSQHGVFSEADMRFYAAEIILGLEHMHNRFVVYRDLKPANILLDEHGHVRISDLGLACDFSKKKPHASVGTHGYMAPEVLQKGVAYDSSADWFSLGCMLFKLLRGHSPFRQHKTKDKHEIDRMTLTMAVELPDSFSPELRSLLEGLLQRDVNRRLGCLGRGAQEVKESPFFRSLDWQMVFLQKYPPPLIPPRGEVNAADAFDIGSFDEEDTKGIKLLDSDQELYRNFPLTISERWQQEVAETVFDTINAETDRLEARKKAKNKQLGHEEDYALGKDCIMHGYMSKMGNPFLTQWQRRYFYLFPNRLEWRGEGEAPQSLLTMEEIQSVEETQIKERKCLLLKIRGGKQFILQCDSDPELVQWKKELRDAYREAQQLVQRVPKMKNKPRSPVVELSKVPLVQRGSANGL

| Structure (SMILES) | KINOMEscan TAOK1 [1] | KINOMEscan MET(M1250T) [2] | KINOMEscan PI4KB [3] | KINOMEscan PLK1 [4] | KINOMEscan EPHA8 [5] | KINOMEscan INSR [6] | KINOMEscan GRK2 [7] |
| --- | --- | --- | --- | --- | --- | --- | --- |
| Cc1cccc(-c2nc(Nc3ccc4nn(C)cc4c3)c3ccccc3n2)n1 [NK167] | 0 | 0 | 0 | 0 | 0 | 0 | 0 |
| Cc1cccc(-c2nc(N(C)c3ccc4ncsc4c3)c3ccccc3n2)n1 [NK-161] | 1 | 3 | 0 | 4 | 0 | 2 | 9 |
